Reference: ChEMBL document CHEMBL5465560, “Selectivity Literature for EUbOPEN Chemogenomic Library” (2024)
Each block holds one molecule with its values, some of them ahead of it.

Key:
[1] = target: STE20-like serine/threonine-protein kinase (Homo sapiens, UniProt Q9H2G2); details: at 10 µM
[2] = target: Cyclin-dependent kinase 7 (Homo sapiens, UniProt P50613); test: Selectivity interaction (KinomeScan (DiscoverX)) EUB0000655a CDK7; details: at 10 µM
[3] = target: Phosphatidylinositol 4-phosphate 5-kinase type-1 gamma (Homo sapiens) (UniProt O60331); test: Selectivity interaction (KinomeScan (DiscoverX)) EUB0000655a PIP5K1C; details: at 10 µM
[4] = target: T1, Serine/threonine-protein kinase TAO3 (Homo sapiens) (UniProt Q9H2K8); test: Selectivity interaction (KinomeScan (DiscoverX)) EUB0001079a TAOK3; details: at 1 µM
T1 sequence (whole entry): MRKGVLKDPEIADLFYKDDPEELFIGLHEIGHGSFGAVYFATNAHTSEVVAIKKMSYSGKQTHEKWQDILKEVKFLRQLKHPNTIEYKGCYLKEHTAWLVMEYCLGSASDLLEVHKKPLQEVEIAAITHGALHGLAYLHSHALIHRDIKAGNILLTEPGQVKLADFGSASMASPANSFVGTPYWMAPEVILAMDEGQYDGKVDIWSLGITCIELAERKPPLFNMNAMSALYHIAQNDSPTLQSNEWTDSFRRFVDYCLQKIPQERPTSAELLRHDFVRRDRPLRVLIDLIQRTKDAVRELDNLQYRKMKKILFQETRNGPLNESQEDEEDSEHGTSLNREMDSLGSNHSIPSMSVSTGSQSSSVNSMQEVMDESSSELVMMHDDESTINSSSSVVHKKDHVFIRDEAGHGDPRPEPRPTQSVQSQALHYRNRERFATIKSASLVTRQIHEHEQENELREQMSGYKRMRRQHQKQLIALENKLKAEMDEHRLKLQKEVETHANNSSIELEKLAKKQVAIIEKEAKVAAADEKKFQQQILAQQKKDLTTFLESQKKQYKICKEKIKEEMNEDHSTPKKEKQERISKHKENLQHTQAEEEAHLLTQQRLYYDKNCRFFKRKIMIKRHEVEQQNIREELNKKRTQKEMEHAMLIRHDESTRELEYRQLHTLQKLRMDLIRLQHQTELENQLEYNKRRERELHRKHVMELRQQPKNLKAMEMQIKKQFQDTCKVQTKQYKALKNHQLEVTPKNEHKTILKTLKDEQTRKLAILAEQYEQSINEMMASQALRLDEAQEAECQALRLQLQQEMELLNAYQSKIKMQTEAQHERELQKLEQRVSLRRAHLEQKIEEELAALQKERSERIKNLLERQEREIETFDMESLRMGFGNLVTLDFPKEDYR

[5] = target: T2, NUAK family SNF1-like kinase 1 (Homo sapiens) (UniProt O60285); test: Selectivity interaction (KinomeScan (DiscoverX)) EUB0001079a NUAK1; details: at 1 µM
T2 sequence (whole entry): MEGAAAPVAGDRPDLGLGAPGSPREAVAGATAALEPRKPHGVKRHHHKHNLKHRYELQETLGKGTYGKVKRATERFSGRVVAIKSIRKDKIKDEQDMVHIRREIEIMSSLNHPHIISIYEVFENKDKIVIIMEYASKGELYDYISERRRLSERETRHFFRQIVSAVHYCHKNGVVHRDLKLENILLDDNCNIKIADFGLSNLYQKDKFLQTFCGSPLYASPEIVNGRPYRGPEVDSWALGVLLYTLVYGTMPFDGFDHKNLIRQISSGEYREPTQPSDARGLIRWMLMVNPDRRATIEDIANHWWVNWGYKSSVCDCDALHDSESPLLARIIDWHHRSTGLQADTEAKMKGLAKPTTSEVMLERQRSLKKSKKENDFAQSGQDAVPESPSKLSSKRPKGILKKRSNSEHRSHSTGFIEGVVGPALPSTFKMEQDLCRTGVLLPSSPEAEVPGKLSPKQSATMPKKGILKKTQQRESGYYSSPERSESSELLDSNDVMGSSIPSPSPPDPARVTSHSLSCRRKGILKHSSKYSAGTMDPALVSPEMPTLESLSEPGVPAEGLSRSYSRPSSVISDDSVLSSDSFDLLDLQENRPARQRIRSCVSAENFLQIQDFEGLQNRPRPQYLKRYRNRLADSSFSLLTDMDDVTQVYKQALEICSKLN

[6] = target: Leucine-rich repeat serine/threonine-protein kinase 2 (Homo sapiens, UniProt Q5S007); test: (§1) Selectivity interaction (KinomeScan (DiscoverX)) EUB0000618a LRRK2; details: at 10 µM
Sequence of Leucine-rich repeat serine/threonine-protein kinase 2 (Q5S007 whole entry): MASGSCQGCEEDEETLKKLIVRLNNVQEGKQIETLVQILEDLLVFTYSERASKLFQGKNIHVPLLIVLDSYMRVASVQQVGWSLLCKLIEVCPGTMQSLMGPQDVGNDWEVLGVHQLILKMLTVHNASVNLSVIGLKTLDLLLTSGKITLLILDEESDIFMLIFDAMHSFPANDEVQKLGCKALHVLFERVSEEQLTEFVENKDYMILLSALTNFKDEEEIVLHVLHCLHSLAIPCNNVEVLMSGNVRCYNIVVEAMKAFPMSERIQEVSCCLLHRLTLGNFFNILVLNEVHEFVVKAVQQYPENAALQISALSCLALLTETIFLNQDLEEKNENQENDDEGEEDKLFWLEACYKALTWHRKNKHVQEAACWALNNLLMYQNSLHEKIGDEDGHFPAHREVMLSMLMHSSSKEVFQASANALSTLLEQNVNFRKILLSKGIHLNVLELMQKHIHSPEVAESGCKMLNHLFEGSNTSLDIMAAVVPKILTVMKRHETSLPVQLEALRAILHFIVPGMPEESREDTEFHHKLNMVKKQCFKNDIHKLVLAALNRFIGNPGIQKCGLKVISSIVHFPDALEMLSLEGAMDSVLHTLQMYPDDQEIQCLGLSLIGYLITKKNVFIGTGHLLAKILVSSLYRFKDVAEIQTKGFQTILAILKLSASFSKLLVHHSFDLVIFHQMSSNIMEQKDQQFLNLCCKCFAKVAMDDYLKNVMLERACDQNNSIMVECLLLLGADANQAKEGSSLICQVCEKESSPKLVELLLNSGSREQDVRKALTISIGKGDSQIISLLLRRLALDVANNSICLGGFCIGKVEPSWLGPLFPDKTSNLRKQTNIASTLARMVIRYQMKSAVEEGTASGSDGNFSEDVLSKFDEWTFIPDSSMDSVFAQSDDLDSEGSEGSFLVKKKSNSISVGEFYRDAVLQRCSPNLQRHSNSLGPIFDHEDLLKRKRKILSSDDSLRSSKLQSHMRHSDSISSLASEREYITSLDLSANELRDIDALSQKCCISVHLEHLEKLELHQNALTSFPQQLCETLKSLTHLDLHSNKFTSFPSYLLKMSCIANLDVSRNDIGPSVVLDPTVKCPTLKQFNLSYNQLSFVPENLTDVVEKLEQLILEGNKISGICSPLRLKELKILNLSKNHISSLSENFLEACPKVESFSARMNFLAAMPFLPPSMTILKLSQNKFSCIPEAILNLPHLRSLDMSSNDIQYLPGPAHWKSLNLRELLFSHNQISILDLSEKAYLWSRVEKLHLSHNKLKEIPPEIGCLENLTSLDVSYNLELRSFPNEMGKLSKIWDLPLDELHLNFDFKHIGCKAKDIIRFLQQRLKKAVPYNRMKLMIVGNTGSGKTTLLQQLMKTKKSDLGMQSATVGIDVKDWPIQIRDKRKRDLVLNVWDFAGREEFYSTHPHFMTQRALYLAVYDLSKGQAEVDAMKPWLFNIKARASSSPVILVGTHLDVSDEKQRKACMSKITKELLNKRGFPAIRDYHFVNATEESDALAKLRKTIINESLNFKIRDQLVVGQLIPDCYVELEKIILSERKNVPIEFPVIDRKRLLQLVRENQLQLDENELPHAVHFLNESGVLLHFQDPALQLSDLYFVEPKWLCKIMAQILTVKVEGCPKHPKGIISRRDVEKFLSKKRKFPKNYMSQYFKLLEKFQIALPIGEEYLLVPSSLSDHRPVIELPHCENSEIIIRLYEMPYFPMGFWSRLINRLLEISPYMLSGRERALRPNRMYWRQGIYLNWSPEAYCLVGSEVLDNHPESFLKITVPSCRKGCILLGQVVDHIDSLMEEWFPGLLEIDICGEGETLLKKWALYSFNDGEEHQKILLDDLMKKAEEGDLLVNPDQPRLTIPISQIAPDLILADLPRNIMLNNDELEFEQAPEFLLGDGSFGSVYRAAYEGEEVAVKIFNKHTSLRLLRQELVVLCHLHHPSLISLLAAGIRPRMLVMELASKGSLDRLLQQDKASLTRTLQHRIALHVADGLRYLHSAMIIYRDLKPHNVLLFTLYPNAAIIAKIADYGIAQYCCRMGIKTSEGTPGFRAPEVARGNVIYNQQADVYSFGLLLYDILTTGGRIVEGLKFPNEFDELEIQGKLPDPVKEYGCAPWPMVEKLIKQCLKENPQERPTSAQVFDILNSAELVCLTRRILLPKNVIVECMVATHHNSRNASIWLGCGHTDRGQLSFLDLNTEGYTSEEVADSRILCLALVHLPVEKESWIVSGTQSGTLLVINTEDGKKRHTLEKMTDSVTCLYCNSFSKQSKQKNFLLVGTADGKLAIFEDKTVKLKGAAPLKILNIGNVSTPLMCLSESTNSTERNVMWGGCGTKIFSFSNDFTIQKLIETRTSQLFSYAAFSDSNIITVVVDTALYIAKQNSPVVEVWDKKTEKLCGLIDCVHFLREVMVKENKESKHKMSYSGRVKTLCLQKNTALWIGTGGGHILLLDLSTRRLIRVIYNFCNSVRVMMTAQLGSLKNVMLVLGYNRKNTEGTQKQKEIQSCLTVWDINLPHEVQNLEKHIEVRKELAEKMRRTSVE

[7] = test system: Leucine-rich repeat serine/threonine-protein kinase 2 (Homo sapiens), Q5S007 [G2019S]; test: as §1; details: at 10 µM
Sequence of Leucine-rich repeat serine/threonine-protein kinase 2 (Homo sapiens), Q5S007 [G2019S] (Q5S007 whole entry G2019S): as the sequence (Q5S007 whole entry) above, with G2019S counted along it

[8] = target: Ribosomal protein S6 kinase alpha-6 (Homo sapiens, UniProt Q9UK32); test: Selectivity interaction (KinomeScan (DiscoverX)) EUB0000595a RPS6KA6; details: at 10 µM
[9] = target: Tyrosine-protein kinase Srms (Homo sapiens) (UniProt Q9H3Y6); details: at 10 µM
Sequence of Tyrosine-protein kinase Srms (Homo sapiens) (Q9H3Y6 whole entry): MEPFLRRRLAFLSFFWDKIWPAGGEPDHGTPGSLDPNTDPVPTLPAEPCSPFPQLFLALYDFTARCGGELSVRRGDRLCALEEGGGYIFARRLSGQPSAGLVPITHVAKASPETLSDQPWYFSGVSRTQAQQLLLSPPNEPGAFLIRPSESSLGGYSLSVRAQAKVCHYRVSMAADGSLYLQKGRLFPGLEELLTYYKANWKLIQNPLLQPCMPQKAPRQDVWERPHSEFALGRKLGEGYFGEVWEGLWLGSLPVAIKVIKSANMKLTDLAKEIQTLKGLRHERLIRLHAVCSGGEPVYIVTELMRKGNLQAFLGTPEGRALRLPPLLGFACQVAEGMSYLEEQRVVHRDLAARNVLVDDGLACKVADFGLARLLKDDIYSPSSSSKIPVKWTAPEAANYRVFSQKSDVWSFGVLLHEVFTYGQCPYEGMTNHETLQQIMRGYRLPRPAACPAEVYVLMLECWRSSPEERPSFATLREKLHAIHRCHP

[10] = target: Cyclin-dependent kinase 18 (Homo sapiens) (UniProt Q07002); test: Selectivity interaction (ActivX KiNativ screen (kinase selectivity in THP-1 cell lysates)) EUB0000639a CDK18; type: subcellular; details: lysate, at 5 µM
[11] = target: Ribosomal protein S6 kinase alpha-5 (Homo sapiens) (UniProt O75582); test: Selectivity interaction (ActivX KiNativ screen (kinase selectivity in THP-1 cell lysates)) EUB0000639a RPS6KA5; type: subcellular; details: lysate
Sequence of Ribosomal protein S6 kinase alpha-5 (Homo sapiens) (O75582 whole entry, looked up): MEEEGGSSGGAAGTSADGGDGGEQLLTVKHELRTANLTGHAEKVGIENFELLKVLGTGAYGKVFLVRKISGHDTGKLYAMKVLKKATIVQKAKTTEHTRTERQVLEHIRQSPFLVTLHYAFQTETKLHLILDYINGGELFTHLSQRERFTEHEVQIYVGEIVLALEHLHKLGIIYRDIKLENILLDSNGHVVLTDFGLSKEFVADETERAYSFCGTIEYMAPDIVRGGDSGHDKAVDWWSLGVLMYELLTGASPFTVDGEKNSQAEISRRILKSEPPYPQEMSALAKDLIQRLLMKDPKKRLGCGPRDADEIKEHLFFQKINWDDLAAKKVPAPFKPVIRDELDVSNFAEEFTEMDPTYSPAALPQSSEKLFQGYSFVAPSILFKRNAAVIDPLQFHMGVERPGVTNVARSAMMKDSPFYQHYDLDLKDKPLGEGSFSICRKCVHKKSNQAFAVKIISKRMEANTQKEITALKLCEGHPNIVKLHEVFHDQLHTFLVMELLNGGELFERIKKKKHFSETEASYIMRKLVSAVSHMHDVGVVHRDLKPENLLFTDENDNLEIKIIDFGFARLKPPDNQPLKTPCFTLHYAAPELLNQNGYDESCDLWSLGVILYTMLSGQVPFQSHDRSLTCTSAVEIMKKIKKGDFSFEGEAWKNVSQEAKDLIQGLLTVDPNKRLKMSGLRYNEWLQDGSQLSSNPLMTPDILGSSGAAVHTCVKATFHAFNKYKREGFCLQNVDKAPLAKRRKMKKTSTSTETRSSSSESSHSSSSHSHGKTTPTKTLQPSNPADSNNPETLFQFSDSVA

[12] = target: Ribosomal protein S6 kinase alpha-4 (Homo sapiens) (UniProt O75676); test: Selectivity interaction (KinomeScan (DiscoverX)) EUB0001049a RPS6KA4; details: at 1 µM
[13] = target: Transcription intermediary factor 1-alpha (Homo sapiens) (UniProt O15164); test: Selectivity interaction (Human bromodomain panel (DSF assay)) EUB0000233b TRIM24
[14] = target: Mitogen-activated protein kinase 9 (Homo sapiens, UniProt P45984); test: Selectivity interaction (Kinase panel (Z-LYTE Assay)) EUB0001632a MAPK9; details: at 10 µM

Sequence of STE20-like serine/threonine-protein kinase (Q9H2G2 whole entry, looked up): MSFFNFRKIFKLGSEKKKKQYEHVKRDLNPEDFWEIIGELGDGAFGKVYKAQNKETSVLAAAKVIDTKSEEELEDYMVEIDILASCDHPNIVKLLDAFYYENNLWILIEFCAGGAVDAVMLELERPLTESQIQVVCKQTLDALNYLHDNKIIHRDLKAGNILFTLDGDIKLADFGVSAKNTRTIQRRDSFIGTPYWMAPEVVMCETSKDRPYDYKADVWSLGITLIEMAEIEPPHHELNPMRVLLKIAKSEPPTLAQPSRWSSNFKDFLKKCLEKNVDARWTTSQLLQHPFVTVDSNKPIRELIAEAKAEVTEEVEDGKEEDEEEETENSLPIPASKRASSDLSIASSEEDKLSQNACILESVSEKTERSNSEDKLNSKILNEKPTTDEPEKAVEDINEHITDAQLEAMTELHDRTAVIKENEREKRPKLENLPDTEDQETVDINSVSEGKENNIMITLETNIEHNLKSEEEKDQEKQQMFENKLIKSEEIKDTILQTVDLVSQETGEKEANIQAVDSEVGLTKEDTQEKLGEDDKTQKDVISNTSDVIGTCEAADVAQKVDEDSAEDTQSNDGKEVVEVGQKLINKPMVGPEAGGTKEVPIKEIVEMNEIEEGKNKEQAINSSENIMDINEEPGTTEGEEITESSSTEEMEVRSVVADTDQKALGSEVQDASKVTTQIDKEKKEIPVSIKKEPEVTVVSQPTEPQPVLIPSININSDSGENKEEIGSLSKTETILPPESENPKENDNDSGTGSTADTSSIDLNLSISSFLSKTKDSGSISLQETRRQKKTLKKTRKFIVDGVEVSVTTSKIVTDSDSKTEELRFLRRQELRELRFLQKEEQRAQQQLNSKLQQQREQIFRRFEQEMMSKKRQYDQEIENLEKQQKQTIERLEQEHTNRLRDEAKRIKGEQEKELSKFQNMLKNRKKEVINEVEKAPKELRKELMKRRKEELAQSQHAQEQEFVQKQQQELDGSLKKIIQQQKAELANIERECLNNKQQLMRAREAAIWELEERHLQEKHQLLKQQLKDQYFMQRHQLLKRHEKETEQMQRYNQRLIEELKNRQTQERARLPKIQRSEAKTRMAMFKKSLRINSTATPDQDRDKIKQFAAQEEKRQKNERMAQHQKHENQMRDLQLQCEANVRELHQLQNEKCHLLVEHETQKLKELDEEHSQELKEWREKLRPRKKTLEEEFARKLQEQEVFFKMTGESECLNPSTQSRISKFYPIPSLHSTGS

% of control [1]: 100%
SMILES: CCN(CC)CCCCNc1ncc2cc(-c3cc(OC)cc(OC)c3)c(NC(=O)NC(C)(C)C)nc2n1

SMILES: CN(C)CCOc1ccc(-c2nc(-c3ccncc3)c(-c3ccc4c(c3)CC/C4=N\O)[nH]2)cc1
% of control [2]: 93% | % of control [3]: 52%

SMILES: Nc1cnc(N2CCc3cc(S(=O)(=O)Nc4c(F)cc(Cl)cc4F)cc(N4CCCC4=O)c32)nc1 [TP-020n]
% of control [4]: 70% | % of control [5]: 100%

SMILES: O[C@H]1CC[C@H](Nc2ncc3nc(Nc4c(F)cc(F)cc4F)n([C@H]4CCOC4)c3n2)CC1
% of control [6]: 83% | % of control [7]: 95%

SMILES: COCC(=O)NC/C=C/c1ccc2ncnc(Nc3ccc(Oc4ccc(C)nc4)c(C)c3)c2c1 [CP-724714]
% of control [8]: 88%

SMILES: Cc1cc([C@@H](C)Nc2ccccc2C(=O)O)c2nc(N3CCOCC3)cc(=O)n2c1 [AZD-6482]
% of control [9]: 63%

% of inhibition [10]: 6.5% | % of inhibition ([11]; at 0.01 µM): 2.2% | % of inhibition ([11]; at 0.04 µM): -1% | % of inhibition ([11]; at 0.2 µM): -6.1% | % of inhibition ([11]; at 1 µM): -9.7% | % of inhibition ([11]; at 5 µM): -27.5%
SMILES: CC[C@@H]1[C@H](F)C(=O)N[C@@H]1COc1nccc2cc(C(N)=O)c(OC)cc12 [ZIMLOVISERTIB]

SMILES: COc1cc(Nc2nc(C)cc(-c3cnn4nc(OC)ccc34)n2)cc(C(F)(F)F)c1
% of control [12]: 84%

dTM [13]: < 2 K
SMILES: CN(C)CCCOc1ccc(-c2cc(NCCCn3cccn3)nc(S(C)(=O)=O)n2)cc1

% of control [14]: 5.25%
SMILES: Cn1cc(-n2cnc3c(NCc4nc5cc(Cl)c(Cl)cc5[nH]4)nc(N4CCOCC4)nc32)cn1
